Experimental data published in patent US10781426B2 (priority 2012, dated 2020).

How the values were obtained:
DPP4 = type: cell-based
HCoV EMC = type: cell-based

Structure (SMILES): Nc1ncnc2c1ncn2[C@@H]1O[C@H](CO)[C@@H](O)[C@H]1O [adenosine]
- DPP4 expression (DPP4): down regulates
- cells' susceptibility to virus infection (HCoV EMC): reduces the cells' susceptibility to virus infection
- virus replication (HCoV EMC): reduces virus replication
